“And” between values parts separate entries of the source, which are not always exact repeats. Equal entries are not always repeated.
Tested on: 556581-035-R-J1 tumor spheroid viability, % test/control
Assay: Anticancer human tumor 556581-035-R-J1 patient-derived ovarian carcinoma cell line growth inhibition
Conditions: spheroids with HUVEC and MSC; for viability, T/C: stronger effect = lower value; active = viability on the fitted dose curve at most 10% of control; inactive = the rest
Source text: Multicellular complex tumor spheroid response to DNA repair inhibitors in combination with DNA-damaging drugs
This study explores the anticancer activities of DNA-damaging drugs and inhibitors of DNA damage repair, both as single agents and in combinations. Complex tumor spheroids comprised of malignant cells, endothelial cells and mesenchymal stem cells served as an in vitro model for human solid tumors. This model system incorporates physiologically relevant features and patient-derived or established malignant cell lines with clinically relevant genetic alterations from many tumor types. Twenty-six patient-derived or established malignant cell lines were evaluated representing sarcoma, melanoma, small cell lung cancer (SCLC), non-small cell lung cancer (NSCLC), as well as bladder, ovarian and pancreatic cancers. The concentration ranges selected for each drug and investigational agent were based upon clinically achievable concentrations if the clinical Cmax of the agent was known.
Compounds. The drugs and compounds olaparib (NSC753686), talazoparib (NSC767125), berzosertib (NSC777718), elimusertib (NSC800525), nedisertib (NSC802822), VX-984 (NSC792969), AZD-1390 (NSC803789), temozolomide (NSC362856), topotecan (NSC609699), trabectedin (NSC813783), staurosporine (NSC755774), and gemcitabine (NSC613327) were obtained from the National Cancer Institute (NCI) Developmental Therapeutics Program Chemical Repository. The FDA-approved anticancer drug set is available from the Developmental Therapeutics Program at https://dtp.cancer.gov/organization/dscb/obtaining/available_plates.htm. […] The stock solutions were prepared in dimethyl sulfoxide (DMSO, Sigma-Aldrich, St. Louis, MO, cat. D2650) at 400-fold the tested concentration and stored at -70 degrees C. Prior to their use, the stock solutions were diluted in fresh medium and the final DMSO concentration in the assay was 0.25% (v/v). All drugs and investigational agents were tested over a range starting from a high concentration at or near the clinical Cmax and decreasing in half-log increments. If the clinical Cmax for an agent had not been determined, the highest concentration tested was 10 microM.
Cell Lines. The patient-derived cancer cell (PDC) lines: 156681-154-R-J1-PDC, 283228-195-R-J1-PDC, 287954-098-R-J1-PDC, 292921-168-R-J2-PDC, 349418-098-R-PDC, 425362-245-T-J1-PDC, 556581-035-R-J1-PDC, and BL0293-F563-PDC were received from the NCI Patient-Derived Models Repository (PDMR, https://pdmr.cancer.gov). The established cell lines HS-SY-2 (RRID:CVCL_8719), MPNST, and SYO-1 (RRID:CVCL_7146) were obtained from the Sloan Kettering Institute. The alveolar soft parts sarcoma cell line ASPS-1 (RRID:CVCL_S738) was established at the NCI and grown from internal seed stocks. The following established cell lines were purchased from the American Type Culture Collection (ATCC, Manassas, VA): G-401 (ATCC, cat. CRL-1441, RRID:CVCL_0270), SW982 (ATCC, cat. HTB-93, RRID:CVCL_1734), VA-ES-BJ (ATCC, cat. CRL-2138, RRID:CVCL_1785), NCI-H719 (ATCC, cat. CRL-5837, RRID:CVCL_1582), NCI-H196 (ATCC, cat. CRL-5823, RRID:CVCL_1509), NCI-H841 (ATCC, cat. CRL-5845, RRID:CVCL_1595), NCI-H1618 (ATCC, cat. CRL-5879, RRID:CVCL_1480), NCI-H1876 (ATCC, cat. CRL-5902, RRID:CVCL_1503), DMS 114 (ATCC, cat. CRL-2066; RRID:CVCL_1174), NCI-H211 (ATCC, cat. CRL-5824; RRID:CVCL_1529), and SW 1271 (ATCC, cat. CRL-2177, RRID:CVCL_1716). The small cell lung cancer cell line COR-L88 was purchased from Sigma-Aldrich (cat. 92031917-1VL, RRID:CVCL_1141). The non-small cell lung cancer cell lines NCI-H226 (RRID:CVCL_1544) and NCI-H322M (RRID:CVCL_1557) were established at the NCI and grown from internal seed stocks. Pooled donor human umbilical vein endothelial cells (HUVEC, Lonza, cat. CC-2519) and human mesenchymal stem cells (hMSC, Lonza, cat. PT-2501) were purchased from Lonza (Walkersville, MD).
Cell Culture. All cells were maintained in an incubator at 37 degrees C and 5% CO2 with 95% humidity. […]
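Also: spheroids exposed to compounds for 7 days before viability read.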

Cc1sc2c(c1C)C(c1ccc(Cl)cc1)=NC(CC(=O)Nc1ccc(O)cc1)c1nnc(C)n1-2 (configuration not stated) + COc1cc2c(cc1O)CCNC21CSC2c3c(OC(C)=O)c(C)c4c(c3C(COC1=O)N1C(O)C3Cc5cc(C)c(OC)c(O)c5C(C21)N3C)OCO4
< 9.49 nM: IC50 (curve of first compound, second compound 0.000949 µM) | IC50 (curve of first compound, second compound 0.003 µM)
782 nM: IC50 (curve of first compound, second compound 0.0003 µM)
inactive: viability, T/C (second compound 30 pM, first compound 0.00949 µM) 107% | viability, T/C (second compound 30 pM, first compound 0.03 µM) 101% | viability, T/C (second compound 30 pM, first compound 0.0949 µM) 83.8% | viability, T/C (second compound 30 pM, first compound 0.3 µM) 80.1% | viability, T/C (second compound 30 pM, first compound 0.949 µM) 72.1% | viability, T/C (second compound 30 pM, first compound 3 µM) 63.5% | viability, T/C (second compound 94.9 pM, first compound 0.00949 µM) 112% | viability, T/C (second compound 94.9 pM, first compound 0.03 µM) 102% | viability, T/C (second compound 94.9 pM, first compound 0.0949 µM) 87.4% | viability, T/C (second compound 94.9 pM, first compound 0.3 µM) 75.8% | viability, T/C (second compound 94.9 pM, first compound 0.949 µM) 71% | viability, T/C (second compound 94.9 pM, first compound 3 µM) 54.9% | viability, T/C (second compound 0.0003 µM, first compound 0.00949 µM) 90.1% | viability, T/C (second compound 0.0003 µM, first compound 0.03 µM) 88.2% | viability, T/C (second compound 0.0003 µM, first compound 0.0949 µM) 80.3% | viability, T/C (second compound 0.0003 µM, first compound 0.3 µM) 64.4% | viability, T/C (second compound 0.0003 µM, first compound 0.949 µM) 47.4% | viability, T/C (second compound 0.0003 µM, first compound 3 µM) 35.4% | viability, T/C (second compound 0.000949 µM, first compound 0.00949 µM) 21.7% | viability, T/C (second compound 0.000949 µM, first compound 0.03 µM) 18.8% | viability, T/C (second compound 0.000949 µM, first compound 0.0949 µM) 15.9%
> 3000 nM: IC50 (curve of first compound, second compound 30 pM) | IC50 (curve of first compound, second compound 94.9 pM)
active: viability, T/C (second compound 0.000949 µM, first compound 0.3 µM) 5.84% | viability, T/C (second compound 0.000949 µM, first compound 0.949 µM) 1.81% | viability, T/C (second compound 0.000949 µM, first compound 3 µM) 0.31% | viability, T/C (second compound 0.003 µM, first compound 0.00949 µM) 0.52% | viability, T/C (second compound 0.003 µM, first compound 0.03 µM) 0.55% | viability, T/C (second compound 0.003 µM, first compound 0.0949 µM) 0.44% | viability, T/C (second compound 0.003 µM, first compound 0.3 µM) 0.36% | viability, T/C (second compound 0.003 µM, first compound 0.949 µM) 0.97% | viability, T/C (second compound 0.003 µM, first compound 3 µM) 1.24%

CC1COCCN1c1cc(-c2ccnn2C)c2ccnc(-c3ccn[nH]3)c2n1 (configuration not stated)
inactive: viability, T/C (compound 0.0316 µM) 95.7% and 92.7% and 89.5% | viability, T/C (compound 0.1 µM) 76.3% and 75.8% and 79.5% | viability, T/C (compound 0.316 µM) 56.5% and 57.8% and 55.5% | viability, T/C (compound 1 µM) 45.5% and 44.4% and 41.9% | viability, T/C (compound 3.16 µM) 39.9% and 39% and 33.9% | viability, T/C (compound 10 µM) 35.6% and 32.5% and 30.2%
636 nM and 647 nM and 521 nM: IC50 (curve of compound)

Reference: PubChem BioAssay AID1845199 (Molecular Pharmacology Branch, DTP, NCI, 2023)
